Test results taken from patent US12416018B2, “Regulation of gene expression by aptamer-mediated modulation of alternative splicing” (MEIRAGTX GENE REGULATION LIMITED, priority 2015, dated 2025).
“Also recorded” adds a separate entry of the source. Like-named read-outs stand apart in the source and are kept apart here.

Legend:
[1] = tested on: luciferase expression in HEK 293 cells; format: cell-based; settings: for regulation of luciferase expression by guanine (in words): with or without 500 μM guanine
Procedure: (§1) Xpt-guanine aptamer with the following sequence: cactcatataat[…]cgact atgggtg (SEQ ID NO.: 10), was used to construct a riboswitch. Oligos containing the sequence of guanine aptamer and hairpin stem with 4 nucleotide 5′ overhang were synthesized (IDT), annealed and then ligated to BsaI-digested DHFR-acceptor vector. HEK 293 cells were transfected as described in Example 1. Four hours after transfection, the media was aspirated, and new media with or without 500 μM guanine was added. Luciferase expression was assayed 20 to 24 hrs after guanine treatment as described in Example 1 and Example 4. HepG2, AML12, RD and C2C12 (ATCC) were cultured using the protocol recommended by ATCC. The intron-exon-intron cassette containing the xpt-G17 riboswitch (SEQ ID NO.: 15) was inserted in the leader peptide sequences of the anti-KDR antibody gene and into the Stul site in mouse erythropoietin gene using Gibson cloning strategy (NEB). Constructs containing mouse erythropoietin (Epo) or anti-KDR antibody were transfected into HEK 293 cells. Four hour after transfection, the media was aspirated, and new media with or without 500 μM guanine was added. Supernatants were subjected to ELISA assay for the production of either anti-KDR antibody or the production of mouse Epo (R&D Systems).
(§2) Constructs were made using Golden Gate cloning strategy (NEB). […] Luciferase activity was assayed as described in Example 5.
The Con1 construct was used as a template for PCR amplification of intron fragments that have either upstream or downstream intron deletions. To generate constructs that have single intron deletions, PCR products were cloned into the constructs containing the xpt-G17 riboswitch using Golden Gate cloning strategy (NEB). To generate constructs with both upstream and downstream intron deletions, fragments released by EcoRI and BamHI from constructs with single deletions in the downstream intron sequence were cloned into EcoRI and BamHI-digested constructs with single deletions in the upstream intron sequence.
Sequences of mutant human Wilms tumor 1 exon 5 (mutWT1-e5, SEQ ID NO.: 61), SIRT1 exon 6 (SIRT1-e6, SEQ ID NO.: 62), mouse calcium/calmodulin-dependent protein kinase II delta exon 16, or 17 (Camk2d-e16 or e17, SEQ ID NOs.: 59, 60), and synthetic exon ENEEE (SEQ ID NO.: 63) were synthesized (IDT) and cloned into the DHFR-G17 vector in place of the DHFR exon using Gibson Cloning kit (NEB). Plasmid DNA was transfected into HEK 293 cells, treated with 500 μM guanine, and luciferase assay performed as described in Example 1. The sequences of each exon with 5′ and 3′ splice sites are shown with exonic sequences in uppercase letters (Table 5, SEQ ID NOS.: 59 to 63).

[2] = tested on: luciferase expression in HepG2 cells; format: cell-based
Procedure: as §1

[3] = tested on: luciferase expression in HEK 293 cells; format: cell-based; settings: for luciferase expression with / without theophylline (in words): HEK 293 cells
Excerpt: A DHFR-acceptor vector was constructed to facilitate the cloning of an aptamer sequence attached to the hairpin stems with different length. The theophylline aptamer sequence used was: ggcgatac[…]gcagegtc (SEQ ID NO:9). Theophylline aptamer oligonucleotides (“oligos”) with 4 nucleotide overhang at 5′ end were synthesized (IDT), annealed and ligated to BsaI-digested DHFR-acceptor vector. HEK 293 cells were transfected with the luciferase reporter constructs with the regulation cassette containing the theophylline aptamer, as described in Example 1. Four hours after transfection, the media was aspirated, and new media with or without 3 mM theophylline was added, and luciferase was assayed 20 to 24 hours after theophylline treatment. The fold induction was expressed as the quotient of luciferase activity obtained in the presence of aptamer ligand divided by the value obtained in the absence of the aptamer ligand.

xpt-G15 double cassette = assay: Guanine dose response of luciferase expression, xpt-G15 double; format: cell-based
Procedure: as §2

[4] = tested on: xpt-G17 containing cassette; assay: Guanine dose response of luciferase expression, single xpt-G17 cassette; format: cell-based; settings: single copy xpt-G17 cassette
Procedure: as §2

[5] = tested on: luciferase gene with two copies of the xpt-G15 containing regulatory cassette (xpt-G15 double); assay: Live animal bioluminescence imaging after hydrodynamic DNA delivery to mouse liver; format: in vivo, mice
Procedure: Hydrodynamic DNA delivery and drug treatment: 5 μg or 10 μg of endotoxin-free plasmid DNA containing the luciferase gene with two copies of the xpt-G15 containing regulatory cassette (xpt-G15 double, SEQ ID NO.: 64; Example 8, FIG. 8a), diluted in saline (Qiagen Endofree kit) was injected through tail vein in a volume of 10% body weight over 5 to 10 seconds to 6-7 weeks old CD-1 female mice. Guanosine (Sigma) was suspended in 0.5% methylcellulose/0.25% Tween 80 (Sigma) in water freshly and administrated orally at 2 hr and 12 hr post DNA injection, or, delivered through intraperitoneal injection (IP) at 5 hr, 12 hr, 16 hr and 24 hr post DNA delivery.
Noninvasive live animal bioluminescence imaging: before imaging, mice were anesthesized with 2% isoflurane, and injected with […] body weight of luciferin, and images were taken within 2 to 5 minutes after luciferin injection using Bruker Xtreme system at the indicated time point post DNA injection. Luciferase activity was expressed as mean photon/sec±s.d. The induction fold was calculated as the quotient of photon/sec obtained in mice treated with guanosine divided by value obtained in mice without guanosine treatment.

[6] = tested on: anti-KDR antibody production in HEK 293 cells; format: cell-based; settings: 500 μM guanine
Procedure: as §1

[7] = tested on: EGFP expression in HEK 293 cells; assay: Flow cytometry / imaging of EGFP with regulatory cassettes in HEK 293 cells; format: cell-based; settings: stably transfected HEK 293, 500 μM guanine
Procedure: The intron-mtDHFR-aptamer-intron cassette was PCR amplified and cloned using Golden Gate cloning strategy (NEB) into pEGFP-C1 vector. To obtain a cell line stably expressing EGFP with riboswitch, HEK-293 cells were electroporated with 20 ng of plasmid DNA. Forty eight hours after electroporation, cell culture was selected with 800 μg/ml G418 for 2 weeks for cells that stably express the cassette. Cells were trypsinized and cell suspension was subjected to flow cytometric analysis of intensity of GFP fluorescence using a Guava EasyCyte 8HT machine. The resulting data was analyzed using GuavaSoft2.2.2.
as §2

DHFR_G17: luciferase construct containing xpt-G17 regulatory cassette (SEQ ID NO: 15) (chain 1 GTAGAAGGTAATGTAT; chain 2 CTACATTACGCAC; chemistry not fully specified)
induced luciferase level as percent of Con1 (maximal expression) ([1]; guanine treatment (500 μM), HEK 293 cells): about 65% | fold induction of luciferase expression [2]: more than 500 fold

DHFR_Theo13: theophylline aptamer cassette, 8 bp stem (chain 1 TTCAGTAGAAGGTAATGTGA; chain 2 GCACATTACGCACCAT; chemistry not fully specified)
luciferase expression with / without theophylline (in words) [3]: luciferase expression is suppressed in the absence of theophylline | luciferase level as percent of Con1 control vector ([3]; in the presence of theophylline (3 mM)): about 56%

Nc1nc2nc[nH]c2c(=O)[nH]1 [guanine]
EC50 for xpt-G15 double relative to single xpt-G17 (times lower) (xpt-G15 double cassette; xpt-G15 double vs xpt-G17): 5 times | EC50 (xpt-G15 double cassette; xpt-G15 double, luciferase): 43 µM | EC50 [4]: 206 µM

Nc1nc2c(ncn2[C@@H]2O[C@H](CO)[C@@H](O)[C@H]2O)c(=O)[nH]1 [guanosine]
fold induction at 100 mg/kg ([5]; Mus musculus, ip, 100 mg/kg guanosine intraperitoneally, 11 hours post DNA injection, read-out: fold induction of luciferase compared to uninduced baseline): 4.7 | fold induction at 300 mg/kg ([5]; Mus musculus, ip, 300 mg/kg guanosine intraperitoneally, 11 hours post DNA injection, read-out: fold induction of luciferase compared to uninduced baseline): 16.2 | luciferase expression in liver after oral guanosine (in words) ([5]; oral dosing 2 hr and 12 hr after DNA delivery): higher luciferase expression at 9 hours post DNA; also recorded: dose related activation of expression of the regulated target gene in the liver of the mice | time of highest luciferase expression post DNA injection ([5]; oral guanosine): 48 h

DHFR_Theo14: theophylline aptamer cassette, 7 bp stem (chain 1 TTCAGTAGAAGGTAATGTA; chain 2 GACATTACGCACCAT; expressed or natural sequence)
luciferase expression with / without theophylline (in words) [3]: no luciferase expression either with or without theophylline

B1: xpt-G17: intron-exon-intron cassette containing the xpt-G17 guanine riboswitch, SEQ ID NO: 15, inserted in various target genes (nucleic acid)
DNA: GTGAGTCTATGGGACCCTTGATGTTTTCTTTCCCCTTCTTTTCTATGGTTAAGTTCATGTCATAGGAAGGGGAGAAGTAACAGGGTACACATATTGACCAAATCAGGGTAATTTTGCATTTGTAATTTTAAAAAATGCTTTCTTCTTTTAATATACTTTTTTGTTTATCTTATTTCTAATACTTTCCCTAATCTCTTTCTTTCAGGGCAATAATGATACAATGTATCATGCCGAGTAACGCTGTTTCTCTAACTTGTAGGAATGAATTCAGATATTTCCAGAGAATGAAAAAAAAATCTTCAGTAGAAGGTAATGTATAATCGCGTGGATATGGCACGCAAGTTTCTACCGGGCACCGTAAATGTCCGACTACATTACGCACCATTCTAAAGAATAACAGTGATAATTTCTGGGTTAAGGCAATAGCAATATTTCTGCATATAAATATTTCTGCATATAAATTGTAACTGATGTAAGAGGTTTCATATTGCTAATAGCAGCTACAATCCAGCTACCATTCTGCTTTTATTTTATGGTTGGGATAAGGCTGGATTATTCTGAGTCCAAGCTAGGCCCTTTTGCTAATCATGTTCATACCTCTTATCTTCCTCCCACAG
modifications: xpt-G17 riboswitch
induced antibody expression as percent of control construct containing the Con 1 intron sequences [6]: about 40% | time after guanine treatment at which fluorescence was detected [7]: 6 h

B2: Camk2d-e16: DHFR-G17 vector with mouse calcium/calmodulin-dependent protein kinase II delta exon 16 in place of DHFR exon; SEQ ID NO: 59 (nucleic acid)
DNA: GAGTAACGCTGTTTCTCTAACTTGTAGTGAGCCCCAAACTACTGTAATCCACAACCCTGACGGAAACAAGGTAATGT
regulation of luciferase expression by guanine (in words) ([1]; listed as CaMKIId-e16): equivalent fold induction to the DHFR exon with SRp40 activating mutation (mtDHFR) | regulation of luciferase expression by guanine (in words) ([1]; listed as CamkIId-e16): nearly equivalent fold induction compared to DHFR-xpt-G17
